# Test results: patent US20040204577A1, “Novel peptide-forming enzyme gene” (Ajinomoto Co., Inc., priority 2003, published 2004)
# Where a SMILES comes first, the peptide text is derived from it.
# System: microbial cells of Sphingobacterium sp. strain FERM BP-8124
# Test: Production of L-alanyl-L-glutamine using microbial cells of Sphingobacterium sp.
# Assay type: cell-based
# Details: 0.1 mL cell suspension (100 g/L) + 0.1 mL buffer with 200 mM L-alanine methyl ester hydrochloride, 400 mM L-glutamine; pH 9.0, 25° C., 120 minutes
# Method: A 50 ml medium (pH 7.0) containing 5 g of glucose, 5 g of ammonium sulfate, 1 g of monopotassium phosphate, 3 g of dipotassium phosphate, 0.5 g of magnesium sulfate, 10 g of yeast extract, and 10 g of peptone in 1 L was transferred to a 500 mL Sakaguchi flask and sterilized at 11 5° C. for 15 minutes for culturing Sphingobacterium sp. strain FERM BP-8124 (Depositary institution: the independent administrative corporation, National Institute of Advanced Industrial Science and Technology, International Patent Organism Depositary, Address of depositary institution: Chuo Dai-6, 1-1 Higashi 1-Chome, Tsukuba-shi, Ibaraki-ken, Japan, International deposit date: Jul. 22, 2002). This medium was then inoculated with one loopful cells of Sphingobacterium sp. strain FERM BP-8124 (Depositary institution: the independent administrative corporation, National Institute of Advanced Industrial Science and Technology, International Patent Organism Depositary, Address of depositary institution: Chuo Dai-6, 1-1 Higashi 1-Chome, Tsukuba-shi, Ibaraki-ken, Japan, International deposit date: Jul. 22, 2002) cultured at 30° C. for 24 hours in a slant agar medium (agar: 20 g/L, pH 7.0) containing 5 g of glucose, 10 g of yeast extract, 10 g of peptone and 5 g of NaCl in 1 L, followed by shake culturing at 30° C. for 20 hours and 120 strokes/minute. […]
compound,measurement,value
"C[C@H](N)C(=O)N[C@@H](CCC(N)=O)C(=O)O [L-Ala-L-Gln, L-alanyl-L-glutamine] (H-Ala-Gln-OH)",L-alanyl-L-glutamine formed,62 mM
